Data: the METLIN SMRT retention time set (Domingo-Almenara et al. 2019)

Assay: gradient 5% acetonitrile 3 min, to 50% in 2 min, to 85% in 15 min, held 3 min, 100 µL/min
Conditions: column: Zorbax Extend-C18 2.1 x 50 mm; eluents: water / acetonitrile, 0.1% formic acid
Summary of the method: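 The mobile phases were water and acetonitrile, each with 0.1% formic acid, pumped at 100 μL/min through a Zorbax Extend-C18 column (2.1 × 50 mm, 1.8 μm). Pure standards were injected as mixtures of ~100 molecules and detected by a quadrupole time-of-flight mass spectrometer in positive and negative ionization mode. Retention time came from computationally picked adduct peaks, each inspected by hand.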

| Compound | RP-LC retention time [s] |
| --- | --- |
| CCCNC(=O)c1cn(-c2cc(-c3nc(C(C)C)no3)ccn2)cn1 | 860 |
| CCc1ccc(NC(=O)N2CCc3c(c(-c4nnc(-c5ccc(F)cc5)o4)nn3C)C2)cc1 | 965 |
| O=C(NCc1ccccn1)c1c(-c2ccccc2)nnc2ccccc12 | 609 |
| Cc1cnc(C(=O)NC2C[C@H]3CC[C@@H](C2)N3C(=O)C2CC2)cn1 (stereo partly specified) | 606 |
| O=C(Nc1ccc2c(c1)OCO2)N1CCN(c2ccc3nnc(C4CC4)n3n2)CC1 | 613 |
| CC(C)CCn1nc2c(S(=O)(=O)N3CCCCC3)cccn2c1=O | 906 |
| Cc1ccc(-c2nc(C3CC(=O)N(c4ccc(F)c(Cl)c4)C3)no2)cc1C (stereo unspecified) | 1090 |
| Cc1cccc(-c2noc(C3CCCN3S(=O)(=O)c3ccc(F)c(Cl)c3)n2)c1 (stereo unspecified) | 1220 |
| COc1ccc(NC(=O)N2CC(N(C3CCOCC3)S(C)(=O)=O)C2)c(C)c1 | 664 |
| CN(C)c1ccc(CNC(=O)C2CCN(S(=O)(=O)c3ccc4c(c3)CCCC(=O)N4)CC2)cc1 | 607 |
| CCCc1ccc(S(=O)(=O)N2CCC(C(=O)NCCc3csc(-c4ccccc4)n3)CC2)cc1 | 1100 |
| O=C(NCCc1ccc(F)cc1)C(=O)Nc1ccc(Cl)cn1 | 918 |
| O=C(Cc1ccc(NC(=O)c2cc(=O)c3ccccc3o2)cc1)NCc1cccs1 | 739 |
| O=C(Nc1cccc(Br)c1)C1CCN(C(=O)c2cc(-c3ccncc3)n[nH]2)CC1 | 640 |
| O=C(Nc1ccccc1C(F)(F)F)N1CCCC(Cn2cnc3cccnc32)C1 (stereo unspecified) | 680 |
| CC(C(=O)N1CCCN(c2cc(=O)n(C(C)C)c(=O)n2C(C)C)CC1)N1C(=O)COc2ccccc21 (stereo unspecified) | 846 |
| CCNC(=O)N1CCCN(S(C)(=O)=O)CC1 | 566 |
| CCOc1ccc(NC(=O)N2CCCC2c2nc(-c3ccc(OC)cc3)no2)cc1 (stereo unspecified) | 940 |
| CCn1c(C2CCN(S(=O)(=O)c3ccc4c(c3)CCCC4)C2)nc2ccncc21 (stereo unspecified) | 585 |
| COc1cc([C@@H]2c3cc4c(cc3[C@H](O)[C@@H](CO)[C@@H]2C(=O)Nc2cccc(F)c2)OCO4)cc(OC)c1OC | 761 |
| CNC(=O)c1cc(N(C)C)nc2c(Cl)cccc12 | 666 |
| O=C(Nc1ccccc1NC(=O)c1ccc(Br)o1)c1cccnc1 | 669 |

| Compound | RP-LC retention time [s] |
| --- | --- |
| Cc1ncc2c(n1)C[C@@H]1CC[C@H]2N1C(=O)NCCc1ccccc1 | 647 |
| COc1ccc(Cl)cc1NC(=O)N1CCC(OC2CCN(S(C)(=O)=O)CC2)CC1 | 811 |
| Cc1ccc(NC(=O)C2CCN(S(=O)(=O)c3ccc4c(c3)NC(=O)C(C)O4)CC2)cc1F (stereo unspecified) | 910 |
| COCCCNC(=O)Nc1ccc2c(c1)CCN2S(=O)(=O)c1ccccc1 | 762 |
| CCOc1ccc(-c2noc(C3CC(=O)N(c4ccc(C)cc4)C3)n2)cc1 (stereo unspecified) | 1080 |
| CCOc1ccccc1NC(=O)N1CCc2nc(OCCOC)ccc2C1 | 871 |
| COc1ccc(N2CCN(C(=O)CN3C(=O)CN(C)C(=O)c4ccccc43)CC2)cc1 | 624 |
| COc1ccc(Cl)cc1NC(=O)CSc1ccc(NC(=O)c2ccco2)nn1 | 851 |
| Cn1cnc(S(=O)(=O)NCCN2C(=O)C3(CCCCC3)C2c2ccccc2)c1 (stereo unspecified) | 722 |
| c1cnc2c(c1)ccc1ncccc12 | 674 |
| O=C(CCc1csc(NC(=O)c2cccs2)n1)Nc1ccc2c(c1)OCCO2 | 733 |
| COc1cc(OC)c(NC(=O)C(=O)c2ccc[nH]2)cc1Cl | 978 |
| Cc1cccc(-c2nnc(-c3cc(S(=O)(=O)N(C)C)ccc3Cl)o2)c1 | 1050 |
| COC1CCC12CCN(C(=O)c1ccco1)CC2 (stereo unspecified) | 735 |
| Cc1ccc(S(=O)(=O)N2CCC3(CC2)CN(C)CC3c2noc(C3CC3)n2)cc1 (stereo unspecified) | 638 |
| O=C(c1ccc(=O)n(CCN2CCCC2)c1)N1CCN(c2ccccc2F)CC1 | 619 |
| Cc1ccc(N2CCN(S(=O)(=O)c3cc(-c4nnc(C5CC5)o4)co3)CC2)cc1 | 818 |
| COc1cc(OC)c(/C=C2/C(=O)Nc3ccccc32)c(OC)c1 | 986 |
| O=C(NCc1ccccc1Cl)C(=O)c1cn(CC(=O)N2CCCC2)c2ccccc12 | 968 |
| O=C(NCCn1cnc2cc(C(=O)N3CCCC3)ccc21)Nc1cccc(Br)c1 | 623 |
| CCc1cnc2c(c1SCC(=O)N(C)c1ccccc1)c(=O)n(C)c(=O)n2C | 800 |
| COc1cc(-c2noc(Cn3ncn4nc(-c5ccc(C)cc5C)cc4c3=O)n2)cc(OC)c1OC | 1130 |

| Compound | RP-LC retention time [s] |
| --- | --- |
| Cc1ccc(-n2cc(C(=O)NCc3ccccc3Cl)nn2)cc1 | 921 |
| CC(C)CNC(=O)N1CCc2nc(OCC3CC3)ccc2C1 | 848 |
| CCCCCn1c(=O)c2ccccc2n(Cc2nc(-c3cc(OC)c(OC)c(OC)c3)no2)c1=O | 646 |
| CCC(C)NC(=O)c1ccc2c(c1)CC(=O)N2CC (stereo unspecified) | 691 |
| N#CC1=C2CCCCC2(O)NC1=O (stereo unspecified) | 655 |
| COc1ccc(CNC(=O)c2ccc(CN3CC(=O)N4CCCCC4C3=O)cc2)cc1 (stereo unspecified) | 683 |
| COc1ccc(-c2cn3c(CC(=O)Nc4ccc(OC)cc4OC)csc3n2)cc1 | 746 |
| O=C(Cn1nc(N2CCCCCC2)c2ccccc2c1=O)Nc1ccc(F)c(F)c1 | 1150 |
| COc1ccc(Cl)c2c(=O)c3c([nH]c12)CCN(CC(=O)Nc1c(C)cccc1C)C3 | 621 |
| CCCNC(=O)Cn1c(C2CCCO2)nc2ccccc21 (stereo unspecified) | 593 |
| Cc1ccnc(NS(=O)(=O)c2ccc(NC(=O)C3=COCCO3)cc2)n1 | 603 |
| O=C(C1=NN(Cc2ccccc2)c2ccccc2S1(=O)=O)N1CCCC1 | 784 |
| CCc1nn(CC(=O)N2CCN(c3ccccn3)CC2)c(=O)c2cc3ccccc3n12 | 607 |
| CCOC(=O)c1cccc(NC(=O)Cn2c(=O)c(CCC(=O)NC3CCCC3)nc3ccccc32)c1 | 876 |
| O=C(C1CCCN(c2ncnc3c2nc2n3CCCCC2)C1)N1CCCCCC1 (stereo unspecified) | 766 |
| CC(C)(CO)NC(=O)Cc1ccc(NC(=O)c2ccc(Cl)s2)cc1 | 704 |
| Cn1cnc(S(=O)(=O)N2CCC(C(=O)NCCc3ccccc3)CC2)c1 | 663 |
| CC1CCC(C(=O)Nc2cccc(-c3nnc4n3CCCC4)c2)CC1 (stereo unspecified) | 756 |
| CCOc1ccc(OCCNC(=O)NC2CCCCC2)cc1 | 800 |
| Oc1ccc(Br)cc1-c1nc2ncccn2c1Nc1cccc(C(F)(F)F)c1 | 1080 |
| Cc1cc2nc(C(F)(F)F)c(=O)n(C(C)C(=O)NCCCN3CCN(C)CC3)c2cc1C (stereo unspecified) | 652 |
| COCCCNC(=O)c1c(C)sc2ccn(Cc3ccc(F)cc3)c(=O)c12 | 746 |
